Experimental data from patent US20130296346A1, “DIPHENYL-AMINE DERIVATIVES: USES, PROCESS OF SYNTHESIS AND PHARMACEUTICAL COMPOSITIONS” (Faes Farma, S.A., priority 2010, published 2013).
Entries after “also recorded” stand apart in the source; their conditions may differ. Marks after values point to notes of the source that are not given here.

What was measured:
[1] = tested on: Jurkat (acute T-cell leukaemia); assay: Apoptosis, sub-G1 peak by flow cytometry; assay type: cell-based, human; conditions: 10 μM, 24 h
Description: (§1) Incubation of Compound 3 with different human hematological cancer cell lines, including CLL, MM, acute T-cell and acute myeloid leukaemia cell lines, induced apoptosis, as assessed by the appearance of cells with a DNA content less than G1, characteristic of early apoptosis (sub-G1 peak; after 6-9 h treatment). More than 20% apoptosis was induced after 24 h treatment of 10 μM Compound 3 with EHEB (CLL), RPMI-8226 (MM), Jurkat (acute T-cell leukaemia) and HL-60 (acute myeloid leukaemia) cells.
(§2) Induction of apoptosis in EHEB cells by Compound 3 (FIG. 7A): EHEB cells were incubated for the indicated times with 10 μM Compound 3, and apoptosis was then quantitated as percentage of cells in the sub-G1 region in cell cycle analysis by flow cytometry. The position of the sub-G1 peak (hypodiploidy), integrated by apoptotic cells, as well as the G0/G1 and G2/M peaks are indicated by arrows. Untreated control cells were run in parallel. The percentage of cells with a DNA content less than G1 (sub-G1) is indicated in each histogram. The experiment shown is representative of three performed. Briefly, cells (5×10^5) were centrifuged and fixed overnight in 70% ethanol at 4° C. Cells were washed 3 times with PBS, incubated for 1 h with 1 mg/ml RNaseA and 20 μg/ml propidium iodide at room temperature, and then analyzed for cell cycle with a Becton Dickinson FACS Calibur flow cytometer (San Jose, Calif.). Quantitation of apoptotic cells was calculated as the percentage of cells in the sub-G1 region (hypodiploidy) in cell cycle analysis.

[2] = tested on: HL-60 (acute myeloid leukaemia); assay: Apoptosis, sub-G1 peak by flow cytometry; assay type: cell-based, human; conditions: 10 μM, 24 h
Description: as §1, §2

EHEB (CLL) = assay: Apoptosis, sub-G1 peak by flow cytometry; assay type: cell-based, human; conditions: 10 μM, 24 h
Description: as §1, §2

RPMI-8226 (MM) = assay: Apoptosis, sub-G1 peak by flow cytometry; assay type: cell-based, human; conditions: 10 μM, 24 h
Description: as §1, §2

[3] = Cytotoxicity for human non-tumoral cells, XTT; assay type: cell-based; conditions: Fibroblasts
Description: (§3) The cytotoxicity of the compounds for human non-tumoral cells was studied in fibroblasts, HUVEC cells and resting PBLs (Peripheral Blood lymphocytes).
(§4) Distinct amounts of exponentially growing cells were seeded in 96-well flat-bottomed microtiter plates in a final volume of 100 μl were seeded in 96-well flat-bottomed microtiter plates, and incubated at 37° C. in a humidified atmosphere of 5% CO2/95% air for 24 h to allow the cells attach to the plates. Then, cells were incubated with different concentrations of the assayed compound at 37° C. under the 5% CO2/95% air atmosphere for 72 h. Cell proliferation was quantified using the XTT cell proliferation kit (Roche Molecular Biochemicals, Mannheim, Germany) following the manufacturer's instructions. Briefly, a freshly prepared mixture solution (50 μl) of XTT labelling reagent and PMS (N-methyldibenzopyrazine methyl sulfate) electron coupling reagent was added to each well. The resulting mixtures were further incubated for 4 h in a humidified atmosphere (37° C., 5% CO2), and the absorbance of the formazan product generated was measured with a microtiter plate reader at a test wavelength of 490 nm and a reference wavelength of 655 nm. The IC50 (50% inhibitory concentration) was then calculated as the drug concentration causing a 50% inhibition of cell proliferation. Data are shown as mean values of four independent experiments each performed in triplicate.

EHEB cells = assay: Chronic lymphocytic leukaemia xenograft animal model; assay type: in vivo, CB17-SCID mice
Description: The chronic lymphocytic leukaemia (CLL) EHEB cell line was cultured in RPMI-1640 medium containing 10% (v/v) heat-inactivated fetal bovine serum, 2 mM L-glutamine, 100 U/ml penicillin, and 100 μg/ml streptomycin at 37° C. in humidified 95% air and 5% CO2. Cells were periodically tested for Mycoplasma infection and found to be negative. CB17-severe combined immunodeficiency (SCID) mice (Charles River laboratories, Lyon, France), kept and handled according to institutional guidelines, complying with Spanish legislation under a 12/12 h light/dark cycle at a temperature of 22° C., received a standard diet and acidified water ad libitum. CB17-SCID mice were inoculated subcutaneously into their lower dorsum with 1.5×10^7 EHEB cells in 100 μl PBS and 100 μl Matrigel basement membrane matrix (Becton Dickinson). When tumors were palpable, mice were randomly assigned into cohorts of 10 mice each, receiving i.v. administration (3 times/week) of the compound at the tail. The volume used for each i. v. administration was […] rendering a final drug concentration of 2.5 mg/kg (body weight). Mice i. v. administered with an equal volume of vehicle were run in parallel. The shortest and longest diameter of the tumor were measured with calipers, and tumor volume (10^−3 cm^3) was calculated using the following standard formula: (the shortest diameter)^2×(the longest diameter)×0.5. Animals were sacrificed, according to institutional guidelines, when the diameter of their tumors reached 3 cm or when significant toxicity was observed. Animal body weight and any sign of morbidity were monitored. Drug treatment lasted for 41 days. Then, tumor xenografts were isolated, measured and weighed, and a necropsy analysis involving tumors and distinct organs was carried out. All values were expressed as means±SD. Statistical differences between groups were assessed using the Mann-Whitney test or the Student's t-test. A p value of less than 0.05 was considered statistically significant. Results are depicted in FIG. 1.

[4] = Cytotoxicity for human non-tumoral cells, XTT; assay type: cell-based; conditions: HUVEC cells (primary, from human cords)
Description: as §3
HUVEC cells were obtained by treating human cords with collagenase type I, […] in Hank's medium incubating 20 minutes at 37° C. Cells were collected afterwards and cultivated in medium M199 with supplements of 20% FBS, 1% P/S and 25 mg/500 ml of medium ECGF, Cells were grown on a 0.2% gelatin matrix.
as §4

[5] = 2.5 mg/kg i.v. 3 times/week, 41 days
[6] = ex vivo after 41 days, 2.5 mg/kg i.v. 3 times/week
[7] = vs control, 2.5 mg/kg i.v. 3 times/week, 41 days

For Fc1ccc(CNCCCC=C(c2ccccc2)c2ccccc2)cc1 [Compound 3, (5,5-diphenyl-pent-4-enyl)-(4-fluoro-benzyl)-amine hydrocloride], the apoptosis [1] was “More than 20%”, the apoptosis [2] was “More than 20%” and the apoptosis (EHEB (CLL)) was “More than 20%”. For the same compound, the apoptosis (RPMI-8226 (MM)) was “More than 20%”, the IC50 at 72 h [3] was 19 µM and the “CLL tumor growth compared with the control group” value (EHEB cells; [5]) was “inhibited CLL tumor growth; also recorded: stadistically significant”. For the same compound, the “necropsy analysis of distinct organs” value (EHEB cells; [5]) was “No significant events or changes in the distinct organs”, the “vascularization of isolated tumors” value (EHEB cells; compared to drug-free tumor-bearing control mice) was “very little vascularization” and the “Tumor Volume” value (EHEB cells; [6]) was 0.487 cm^3. The “Tumor Weight” value (EHEB cells; [6]) was 0.932 g, the “Inhibition (%) of Tumor Volume” value (EHEB cells; [7]) was 74.88** % and the “Inhibition (%) of Tumor Weight” value (EHEB cells; [7]) was 50.69** %. For the same compound, the IC50 at 72 h [4] was 16 µM.
